Experimental data as given in patent US20260055154A1, “LONG-ACTING DUAL-AGONIST COMPOUND” (CHENGDU AODA BIOTECHNOLOGY CO., LTD, priority 2022, published 2026).
Read-outs that look alike come from different tables or passages of the source. Starred links: 1 amine or outer side, 2 acyl side, 3 side chain; linkers in the order of their positions; H or OH if unused. Non-standard residues stand in square brackets, D forms with d. Residues, ends and D or L forms follow the SMILES beside them. Groups on a side chain read outwards from the residue. No end group written: not given here. *: point of attachment. X1 = O=C(O)CCCCCCCCCCCCCCCCCCC(=O)N[C@@H](CCC(=O)NCCOCCOCCOCCOCCOCC(=O)*)C(=O)O; C20 diacid = O=C(O)CCCCCCCCCCCCCCCCCCC(=O)*; γGlu = O=C(O)[C@H](CCC(=O)[*:2])N[*:1]; AEEA = NCCOCCOCC(=O)O; Aib = CC(C)(N)C(=O)O

What was measured:
[1] = in vivo; set-up: species or system cynomolgus monkeys; details: male, cynomolgus monkey, sc, 0.2 mg/kg
Description: The experimental animals were cynomolgus monkeys, and two male cynomolgus monkeys in each group were subcutaneously administrated the compound at a dose of 0.2 mg/kg. The venous blood samples were collected before drug administration (0 h), and 1 h, 2 h, 3 h, 4 h, 8 h, 12 h, 18 h, 24 h, 48 h, 96 h, 144 h and 168 h after administration, respectively. The plasma samples were separated by centrifugation. The blood drug concentrations of the corresponding compounds in the plasma samples were determined by liquid chromatography-mass spectrometry.

[2] = target: T1, GcgR (Homo sapiens, UniProt P47871); assay: Gcg activity determination (cAMP, chemiluminescence, stable cell line); type: cell-based; details: CHO-K1 cell line stably expressing GcgR; OXM3 as reference
T1 construct: expressed in transfected cells; host or cells: CHO-K1
Description: (§1) GcgR activates the intracellular adenylate cyclase pathway under the stimulation of its specific agonist, to increase the cAMP level and ultimately lead to the production and release of insulin. The stably cell line expressing GcgR was stimulated by the test substance to rapidly increase the intracellular cAMP level. The relative light units (RLU) in the cells after the stimulation by each dose of agonists were determined by the chemiluminescence method, and then the EC50 of the agonist was calculated. This activity determination method is currently a common determination method for Geg receptor agonist activity at home and abroad.
A CHO-K1 cell line stably expressing GcgR was adopted. The cells were stimulated with different concentrations of agonists, and the relative light units (RLU) after the stimulation of cells by each dose of agonists were determined. Using OXM3 as a reference, the relative biological activity of the agonist was obtained.

[3] = in vivo; details: human
[4] = target: T2, GLP-1R (Homo sapiens, UniProt P43220); assay: Determination of GLP-1 activity (cAMP, chemiluminescence, stable cell line); type: cell-based; details: CHO-K1 cell line stably expressing GLP-1R; OXM3 as reference substance
T2 construct: expressed in transfected cells; host or cells: CHO-K1
Description: as §1, with “GLP-1R” for “GcgR”, “stable” for “stably”, “after” for “after the”, “the test substance” for “agonists”, “GLP-1” for “Geg”
A CHO-K1 cell line that stably expresses GLP-IR was adopted, and the cells were stimulated with different concentrations of agonists. The relative light units after stimulation of the cells by each dose of agonists were measured. Using OXM3 as a reference substance, the relative biological activity of each agonist was obtained.

[5] = human, in vivo; cited from earlier work

T1 sequence (P47871 26-477, species assumed): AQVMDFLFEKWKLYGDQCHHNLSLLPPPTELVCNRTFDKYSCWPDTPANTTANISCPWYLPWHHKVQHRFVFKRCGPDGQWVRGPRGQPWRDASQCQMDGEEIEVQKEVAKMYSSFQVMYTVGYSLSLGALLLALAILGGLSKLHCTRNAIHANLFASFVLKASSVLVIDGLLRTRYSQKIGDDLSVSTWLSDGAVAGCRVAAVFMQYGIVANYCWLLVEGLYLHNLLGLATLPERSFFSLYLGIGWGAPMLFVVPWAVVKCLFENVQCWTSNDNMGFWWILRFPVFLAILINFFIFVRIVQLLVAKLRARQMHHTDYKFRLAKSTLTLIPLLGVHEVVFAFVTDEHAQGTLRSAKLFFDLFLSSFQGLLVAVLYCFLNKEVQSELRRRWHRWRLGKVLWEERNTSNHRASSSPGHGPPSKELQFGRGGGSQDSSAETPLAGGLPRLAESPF
T2 sequence (P43220 24-463, species assumed): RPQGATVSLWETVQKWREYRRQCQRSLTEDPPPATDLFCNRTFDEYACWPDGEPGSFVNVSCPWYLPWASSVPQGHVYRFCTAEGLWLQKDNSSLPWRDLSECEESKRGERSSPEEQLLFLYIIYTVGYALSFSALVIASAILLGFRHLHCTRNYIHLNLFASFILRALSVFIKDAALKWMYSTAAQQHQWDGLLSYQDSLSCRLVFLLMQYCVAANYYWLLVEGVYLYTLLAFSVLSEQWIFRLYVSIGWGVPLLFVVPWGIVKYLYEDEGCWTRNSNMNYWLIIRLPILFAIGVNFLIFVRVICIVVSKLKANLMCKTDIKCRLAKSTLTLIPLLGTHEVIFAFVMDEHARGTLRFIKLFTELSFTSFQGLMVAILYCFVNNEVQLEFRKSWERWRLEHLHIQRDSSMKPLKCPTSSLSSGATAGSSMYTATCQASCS

**Q.** Which half-life [1] does the source give for `CC(C)C[C@H](NC(=O)[C@H](CC(C)C)NC(=O)[C@H](Cc1c[nH]c2ccccc12)NC(=O)[C@H](CCC(=O)O)NC(=O)[C@@H](NC(=O)[C@H](Cc1ccccc1)NC(=O)[C@H](CCC(=O)O)NC(=O)[C@H](CCCCNC(=O)COCCOCCOCCOCCOCCNC(=O)CC[C@H](NC(=O)CCCCCCCCCCCCCCCCCCC(=O)O)C(=O)O)NC(=O)[C@H](C)NC(=O)[C@H](CCCCN)NC(=O)[C@H](CCCCN)NC(=O)[C@H](CCC(=O)O)NC(=O)[C@H](CC(=O)O)NC(=O)[C@H](CC(C)C)NC(=O)[C@H](Cc1ccc(O)cc1)NC(=O)[C@H](CCCCN)NC(=O)[C@H](CO)NC(=O)[C@H](Cc1ccc(O)cc1)NC(=O)[C@H](CC(=O)O)NC(=O)[C@H](CO)NC(=O)[C@@H](NC(=O)[C@H](Cc1ccccc1)NC(=O)[C@@H](NC(=O)CNC(=O)[C@H](CCC(N)=O)NC(=O)C(C)(C)NC(=O)[C@@H](N)Cc1c[nH]cn1)[C@@H](C)O)[C@@H](C)O)C(C)C)C(=O)N[C@@H](CCC(=O)O)C(=O)NCC(=O)NCC(=O)N1CCC[C@H]1C(=O)N[C@@H](CO)C(=O)N[C@@H](CO)C(=O)NCC(=O)N[C@@H](C)C(=O)N1CCC[C@H]1C(=O)N1CCC[C@H]1C(=O)N1CCC[C@H]1C(=O)N[C@@H](CO)C(N)=O` [Compound 2, His-Aib-Gln-Gly-Thr-Phe-Thr-Ser-Asp-Tyr-Ser-Lys-Tyr-Leu-Asp-Glu-Lys-Lys-Ala-Lys(PEG5CH2CO-γGlu-eicosanedioic acid)-Glu-Phe-Val-Glu-Trp-Leu-Leu-Glu-Gly-Gly-Pro-Ser-Ser-Gly-Ala-Pro-Pro-Pro-Ser-NH2] (H-H[Aib]QGTFTSDYSKYLDEKKAK(X1)EFVEWLLEGGPSSGAPPPS-NH2) here?
**A.** 140 h

**Q.** And the “Biological activity (%)” value [2]?
**A.** 86.9%

**Q.** What about the half-life [3] of the same compound?
**A.** ~280 h

**Q.** And the Relative biological activity [4]?
**A.** 259.9%

**Q.** Which half-life [5] does the source give for “His-Aib-Gln-Gly-Thr-Phe-Thr-Ser-Asp-Tyr-Ser-Lys-Tyr-Leu-Asp-Glu-Lys-Lys-Ala-Lys(AEEA-AEEA-γGlu-eicosanedioic acid)-Glu-Phe-Val-Glu-Trp-Leu-Leu-Glu-Gly-Gly-Pro-Ser-Ser-Gly-NH2 (H[Aib]QGTFTSDYSKYLDEKKAK([AEEA-AEEA-γGlu-C20 diacid])EFVEWLLEGGPSSG-NH2) [OXM3]” here?
**A.** 120 h
